Assay results reported in PubChem BioAssay (NCI).
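Cells were grown in 96-well plates and exposed to each compound for 48 hours at five concentrations; endpoints were interpolated linearly between bracketing concentrations, or set to the highest concentration if not reached. GI50 is the concentration that inhibits growth by half. TGI: total growth inhibition.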

How the values were obtained:
Assay in all cases: growth of human tumour cells (NCI), 48 h
SK-MEL-5 melanoma = system: SK-MEL-5 melanoma
SF-295 CNS = system: SF-295 CNS
UACC-257 melanoma = system: UACC-257 melanoma
EKVX NSCLC = system: EKVX NSCLC
K-562 leukemia = system: K-562 leukemia
NCI/ADR-RES ovarian = system: NCI/ADR-RES ovarian
SNB-19 CNS = system: SNB-19 CNS
M14 melanoma = system: M14 melanoma
MDA-MB-231 breast = system: MDA-MB-231 breast
MOLT-4 leukemia = system: MOLT-4 leukemia
KM12 colon = system: KM12 colon
OVCAR-8 ovarian = system: OVCAR-8 ovarian
NCI-H460 lung = system: NCI-H460 lung
786-0 renal = system: 786-0 renal
SK-MEL-28 melanoma = system: SK-MEL-28 melanoma
SK-OV-3 ovarian = system: SK-OV-3 ovarian
HS 578T breast = system: HS 578T breast
UO-31 renal = system: UO-31 renal
RPMI-8226 leukemia = system: RPMI-8226 leukemia
T-47D breast = system: T-47D breast
TK-10 renal = system: TK-10 renal
HL-60(TB) leukemia = system: HL-60(TB) leukemia
OVCAR-5 ovarian = system: OVCAR-5 ovarian
LOX IMVI melanoma = system: LOX IMVI melanoma
NCI-H522 lung = system: NCI-H522 lung
HCT-116 colon = system: HCT-116 colon
MALME-3M melanoma = system: MALME-3M melanoma
CAKI-1 renal = system: CAKI-1 renal
MDA-MB-435 = system: MDA-MB-435
HT29 colon = system: HT29 colon
OVCAR-3 ovarian = system: OVCAR-3 ovarian
SF-268 CNS = system: SF-268 CNS
SR leukemia = system: SR leukemia
SW-620 colon = system: SW-620 colon
ACHN renal = system: ACHN renal
SN12C renal = system: SN12C renal
A549 NSCLC = system: A549 NSCLC
NCI-H226 lung = system: NCI-H226 lung
UACC-62 melanoma = system: UACC-62 melanoma
DU-145 prostate = system: DU-145 prostate
IGROV1 ovarian = system: IGROV1 ovarian
PC-3 prostate = system: PC-3 prostate
HOP-62 NSCLC = system: HOP-62 NSCLC
CCRF-CEM leukemia = system: CCRF-CEM leukemia
U251 CNS = system: U251 CNS
COLO 205 colon = system: COLO 205 colon
SF-539 CNS = system: SF-539 CNS
HCT-15 colon = system: HCT-15 colon
MCF7 breast = system: MCF7 breast
SK-MEL-2 melanoma = system: SK-MEL-2 melanoma
SNB-75 CNS = system: SNB-75 CNS
RXF 393 renal = system: RXF 393 renal
NCI-H23 lung = system: NCI-H23 lung
BT-549 breast = system: BT-549 breast
OVCAR-4 ovarian = system: OVCAR-4 ovarian
HCC-2998 colon = system: HCC-2998 colon
HOP-92 NSCLC = system: HOP-92 NSCLC
A498 renal = system: A498 renal

Cc1nc(N)sc1N=Nc1cc(Cl)c([N+](=O)[O-])cc1Cl
TGI (SK-MEL-5 melanoma): 19.4 µM | TGI (SF-295 CNS): 54.6 µM | TGI (UACC-257 melanoma): 44.7 µM | TGI (EKVX NSCLC): 37.7 µM | TGI (K-562 leukemia): 30 µM | TGI (NCI/ADR-RES ovarian): 70.4 µM | TGI (SNB-19 CNS): > 100 µM | TGI (M14 melanoma): > 100 µM | TGI (MDA-MB-231 breast): 45.9 µM | TGI (MOLT-4 leukemia): 22.4 µM | TGI (KM12 colon): 37.7 µM | TGI (OVCAR-8 ovarian): 36.8 µM | TGI (NCI-H460 lung): 86.7 µM | TGI (786-0 renal): > 100 µM | TGI (SK-MEL-28 melanoma): 33.9 µM | TGI (SK-OV-3 ovarian): > 100 µM | TGI (HS 578T breast): 95.9 µM | TGI (UO-31 renal): 66.9 µM | TGI (RPMI-8226 leukemia): 21.8 µM | TGI (T-47D breast): > 100 µM | TGI (TK-10 renal): 52.1 µM | TGI (HL-60(TB) leukemia): 57.7 µM | TGI (OVCAR-5 ovarian): 84.6 µM | TGI (LOX IMVI melanoma): 36.8 µM | TGI (NCI-H522 lung): 35.5 µM | TGI (HCT-116 colon): > 100 µM | TGI (MALME-3M melanoma): 32.7 µM | TGI (CAKI-1 renal): 68.5 µM | TGI (MDA-MB-435): 42.1 µM | TGI (HT29 colon): 28.7 µM | TGI (OVCAR-3 ovarian): 40 µM | TGI (SF-268 CNS): 88.5 µM | TGI (SR leukemia): 26.5 µM | TGI (SW-620 colon): 35.8 µM | TGI (ACHN renal): 55.9 µM | TGI (SN12C renal): 56.1 µM | TGI (A549 NSCLC): 31.5 µM | TGI (NCI-H226 lung): 44.4 µM | TGI (UACC-62 melanoma): 36.1 µM | TGI (DU-145 prostate): 32.5 µM | TGI (IGROV1 ovarian): 47.2 µM | TGI (PC-3 prostate): 53.3 µM | TGI (HOP-62 NSCLC): 65 µM | TGI (CCRF-CEM leukemia): 35 µM | TGI (U251 CNS): 44.7 µM | TGI (COLO 205 colon): > 100 µM | TGI (SF-539 CNS): 41.8 µM | TGI (HCT-15 colon): 79.3 µM | TGI (MCF7 breast): 68.8 µM | TGI (SK-MEL-2 melanoma): 60 µM | TGI (SNB-75 CNS): 30.5 µM | TGI (RXF 393 renal): > 100 µM

CN(C)CCCNC(=O)c1cc(NC(=O)c2cc(NC(=O)[C@H]3C[C@@H]3C(=O)Nc3cc(C(=O)Nc4cc(C(=O)NCCCN(C)C)n(C)c4)n(C)c3)cn2C)cn1C
TGI (SK-MEL-5 melanoma): > 100 µM | TGI (SF-295 CNS): > 100 µM | TGI (UACC-257 melanoma): > 100 µM | TGI (EKVX NSCLC): > 100 µM | TGI (K-562 leukemia): > 100 µM | TGI (NCI/ADR-RES ovarian): > 100 µM | TGI (SNB-19 CNS): > 100 µM | TGI (M14 melanoma): > 100 µM | TGI (MDA-MB-231 breast): > 100 µM | TGI (MOLT-4 leukemia): > 100 µM | TGI (NCI-H23 lung): > 100 µM | TGI (KM12 colon): > 100 µM | TGI (OVCAR-8 ovarian): > 100 µM | TGI (NCI-H460 lung): > 100 µM | TGI (786-0 renal): > 100 µM | TGI (BT-549 breast): > 100 µM | TGI (OVCAR-4 ovarian): > 100 µM | TGI (RPMI-8226 leukemia): > 100 µM | TGI (HL-60(TB) leukemia): > 100 µM | TGI (OVCAR-5 ovarian): > 100 µM | TGI (LOX IMVI melanoma): > 100 µM | TGI (NCI-H522 lung): > 100 µM | TGI (HCT-116 colon): > 100 µM | TGI (MALME-3M melanoma): > 100 µM | TGI (CAKI-1 renal): > 100 µM | TGI (MDA-MB-435): > 100 µM | TGI (HT29 colon): > 100 µM | TGI (SF-268 CNS): > 100 µM | TGI (SR leukemia): > 100 µM | TGI (SW-620 colon): > 100 µM | TGI (ACHN renal): > 100 µM | TGI (SN12C renal): > 100 µM | TGI (A549 NSCLC): > 100 µM | TGI (NCI-H226 lung): > 100 µM | TGI (DU-145 prostate): > 100 µM | TGI (IGROV1 ovarian): > 100 µM | TGI (HCC-2998 colon): > 100 µM | TGI (PC-3 prostate): > 100 µM | TGI (HOP-92 NSCLC): 7.96 µM | TGI (HOP-62 NSCLC): > 100 µM | TGI (CCRF-CEM leukemia): > 100 µM | TGI (U251 CNS): > 100 µM | TGI (COLO 205 colon): > 100 µM | TGI (SF-539 CNS): > 100 µM | TGI (HCT-15 colon): > 100 µM | TGI (MCF7 breast): > 100 µM | TGI (SK-MEL-2 melanoma): > 100 µM | TGI (SNB-75 CNS): > 100 µM

CCCCCCCCCCCCSC(=NC)NC
GI50 (SK-MEL-5 melanoma): 1.48 µM | TGI (SK-MEL-5 melanoma): 2.85 µM | GI50 (SF-295 CNS): 1.91 µM | TGI (SF-295 CNS): 3.86 µM | GI50 (UACC-257 melanoma): 2.15 µM | TGI (UACC-257 melanoma): 5.14 µM | GI50 (EKVX NSCLC): 3.71 µM | TGI (EKVX NSCLC): 17.6 µM | GI50 (K-562 leukemia): 1.95 µM | TGI (K-562 leukemia): 6.35 µM | GI50 (NCI/ADR-RES ovarian): 2.06 µM | TGI (NCI/ADR-RES ovarian): 4.53 µM | GI50 (SNB-19 CNS): 3.06 µM | TGI (SNB-19 CNS): 17.6 µM | GI50 (MDA-MB-231 breast): 2.02 µM | TGI (MDA-MB-231 breast): 4.15 µM | GI50 (MOLT-4 leukemia): 2.01 µM | TGI (MOLT-4 leukemia): 5.05 µM | GI50 (NCI-H23 lung): 2.2 µM | TGI (NCI-H23 lung): 4.71 µM | GI50 (OVCAR-8 ovarian): 2.88 µM | TGI (OVCAR-8 ovarian): > 100 µM | GI50 (NCI-H460 lung): 1.84 µM | TGI (NCI-H460 lung): 3.52 µM | GI50 (786-0 renal): 1.88 µM | TGI (786-0 renal): 3.51 µM | GI50 (SK-MEL-28 melanoma): 1.72 µM | TGI (SK-MEL-28 melanoma): 3.22 µM | GI50 (BT-549 breast): 4.09 µM | TGI (BT-549 breast): 21 µM | GI50 (OVCAR-4 ovarian): 2.16 µM | TGI (OVCAR-4 ovarian): 5.61 µM | GI50 (SK-OV-3 ovarian): 4.26 µM | TGI (SK-OV-3 ovarian): 19 µM | GI50 (HS 578T breast): 2.41 µM | TGI (HS 578T breast): 7.07 µM | GI50 (UO-31 renal): 2.11 µM | TGI (UO-31 renal): 5.64 µM | GI50 (RPMI-8226 leukemia): 2.07 µM | TGI (RPMI-8226 leukemia): 4.77 µM | GI50 (T-47D breast): 2.04 µM | TGI (T-47D breast): 4.77 µM | GI50 (TK-10 renal): 1.71 µM | TGI (TK-10 renal): 3.49 µM | GI50 (HL-60(TB) leukemia): 1.86 µM | TGI (HL-60(TB) leukemia): 4.41 µM | GI50 (OVCAR-5 ovarian): 1.83 µM | TGI (OVCAR-5 ovarian): 4.16 µM | GI50 (A498 renal): 2.63 µM | TGI (A498 renal): 8.69 µM | GI50 (MALME-3M melanoma): 2.04 µM | TGI (MALME-3M melanoma): 3.97 µM | GI50 (CAKI-1 renal): 1.92 µM | TGI (CAKI-1 renal): 4.8 µM | GI50 (MDA-MB-435): 1.74 µM | TGI (MDA-MB-435): 3.3 µM | GI50 (HT29 colon): 2.06 µM | TGI (HT29 colon): 9.33 µM | GI50 (OVCAR-3 ovarian): 2 µM | TGI (OVCAR-3 ovarian): 4.82 µM | GI50 (SF-268 CNS): 3.82 µM | TGI (SF-268 CNS): 22.5 µM | GI50 (SR leukemia): 1.37 µM | TGI (SR leukemia): 5.32 µM | GI50 (ACHN renal): 1.73 µM | TGI (ACHN renal): 3.35 µM | GI50 (SN12C renal): 2.67 µM | TGI (SN12C renal): 7.69 µM | GI50 (A549 NSCLC): 2.12 µM | TGI (A549 NSCLC): 4.76 µM | GI50 (UACC-62 melanoma): 1.68 µM | TGI (UACC-62 melanoma): 3.21 µM | GI50 (DU-145 prostate): 3.12 µM | TGI (DU-145 prostate): 12.3 µM | GI50 (IGROV1 ovarian): 2.52 µM | TGI (IGROV1 ovarian): 5.83 µM | GI50 (HCC-2998 colon): 1.6 µM | TGI (HCC-2998 colon): 3.03 µM | GI50 (PC-3 prostate): 1.9 µM | TGI (PC-3 prostate): 4.94 µM | GI50 (HOP-92 NSCLC): 1.39 µM | TGI (HOP-92 NSCLC): 5.49 µM | GI50 (HOP-62 NSCLC): 1.94 µM | TGI (HOP-62 NSCLC): 4.59 µM | GI50 (CCRF-CEM leukemia): 2.63 µM | TGI (CCRF-CEM leukemia): 9.97 µM | GI50 (SF-539 CNS): 1.67 µM | TGI (SF-539 CNS): 3.14 µM | GI50 (HCT-15 colon): 1.55 µM | TGI (HCT-15 colon): 3.39 µM | GI50 (SNB-75 CNS): 1.78 µM | TGI (SNB-75 CNS): 3.55 µM | GI50 (RXF 393 renal): 1.89 µM | TGI (RXF 393 renal): 4.15 µM
